# Assay results taken from patent US5861476A, “Peptides and compounds that bind to the IL-1 receptor” (Affymax Technologies N.V., priority 1995, dated 1999).
# Where a SMILES comes first, the peptide text is derived from it. Where no end group is shown, it is not given here. [ ]: non-standard residue; d: D form. pY = N[C@@H](Cc1ccc(OP(=O)(O)O)cc1)C(=O)O; 1Nal = N[C@@H](Cc1cccc2ccccc12)C(=O)O; Aze = O=C(O)[C@@H]1CCN1
# Biological target: T1, IL-1 induced down-regulation of the epidermal growth factor (EGF) receptor in normal human dermal fibroblasts (NHDF) (Homo sapiens, UniProt P14778)
# T1 sequence (P14778 18-569): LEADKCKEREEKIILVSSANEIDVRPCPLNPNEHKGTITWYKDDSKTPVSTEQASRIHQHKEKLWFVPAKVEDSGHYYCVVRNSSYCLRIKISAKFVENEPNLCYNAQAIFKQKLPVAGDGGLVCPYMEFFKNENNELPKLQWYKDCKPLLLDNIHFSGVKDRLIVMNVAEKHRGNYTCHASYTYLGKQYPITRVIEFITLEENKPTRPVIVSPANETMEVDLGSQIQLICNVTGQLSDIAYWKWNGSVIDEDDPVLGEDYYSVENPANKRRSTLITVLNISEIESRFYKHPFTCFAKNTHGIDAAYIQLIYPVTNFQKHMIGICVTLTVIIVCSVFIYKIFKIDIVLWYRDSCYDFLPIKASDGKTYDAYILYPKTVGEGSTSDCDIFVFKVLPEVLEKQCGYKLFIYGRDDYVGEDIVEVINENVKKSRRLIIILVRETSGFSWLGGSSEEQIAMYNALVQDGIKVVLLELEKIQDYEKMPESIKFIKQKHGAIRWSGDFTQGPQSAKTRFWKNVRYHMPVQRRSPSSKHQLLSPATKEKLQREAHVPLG
# Assay: Epidermal Growth Factor Receptor Down Regulation Assay
# Format: cell-based
# Details: 37° C., in the presence of IL-1α, 125I-labeled EGF binding, read-out: IC50 (approximate concentration which blocked 50% of the IL-1 induced down regulation of the EGF receptor)
# Excerpt: The protocol set forth in Bird and Saklatvala (1989) J. Immunol. […] This assay examines the effect of the compounds of the invention on the IL-1 induced down-regulation of the epidermal growth factor (EGF) receptor as measured by the binding of ^125 I-labeled EGF to its receptor in normal human dermal fibroblasts (NHDF). […] The table below lists the approximate concentration of representative peptides of the invention which blocked 50% of the IL-1 induced down regulation of the EGF receptor. IC50 values are indicated symbolically by the symbols "-", "+", and "++". […] Those peptides which give IC50 values of less than or equal to 100 μM are given a "+", while those which give IC50 values of 500 nM or less are indicated with a "++". Those peptides which give IC50 values at or near the cutoff point for a particular symbol are indicated with a hybrid, e.g. "±". Those peptides for which IC50 values were not determined are listed as "N.D".
row,IC50,Compound
1,0.5 µM,CC(=O)N[C@@H](Cc1ccccc1)C(=O)N[C@@H](CCC(=O)O)C(=O)N[C@@H](Cc1c[nH]c2ccccc12)C(=O)N[C@H](C(=O)N1CCC[C@H]1C(=O)NCC(=O)N[C@@H](Cc1ccc(O)cc1)C(=O)N[C@@H](Cc1ccc(O)cc1)C(=O)N[C@@H](CCC(N)=O)C(=O)N1CC[C@H]1C(=O)N[C@@H](Cc1ccc(O)cc1)C(N)=O)[C@@H](C)O [AcFEWTPGYYQJY--NH2] (Ac-FEWTPGYYQ[Aze]Y-NH2)
2,> 100 µM,CC(C)C[C@H](NC(=O)[C@@H]1CCCN1C(=O)[C@H](CC(C)C)NC(=O)[C@H](C)NC(=O)[C@H](Cc1ccc(O)cc1)NC(=O)[C@@H]1CCN1C(=O)[C@H](CCC(N)=O)NC(=O)[C@H](Cc1c[nH]c2ccccc12)NC(=O)[C@H](Cc1ccc(O)cc1)NC(=O)[C@@H](NC(=O)[C@H](Cc1ccccc1)NC(=O)[C@@H](N)[C@@H](C)O)C(C)C)C(=O)O [TFVYWQJYALPL] (H-TFVYWQ[Aze]YALPL-OH)
3,> 100 µM,CC(C)C[C@H](NC(=O)[C@@H]1CCCN1C(=O)[C@H](CC(C)C)NC(=O)[C@H](C)NC(=O)[C@H](Cc1ccc(O)cc1)NC(=O)[C@@H]1CCCN1C(=O)[C@H](CCC(N)=O)NC(=O)[C@H](Cc1c[nH]c2ccccc12)NC(=O)[C@H](Cc1ccc(O)cc1)NC(=O)[C@H](NC(=O)[C@H](Cc1ccccc1)NC(=O)[C@@H](N)[C@@H](C)O)C(C)C)C(=O)O [TFvYWQPYALPL] (H-TF[dV]YWQPYALPL-OH)
4,≤ 0.5 µM,DGYDRWRQSGERYWQPYALPL
5,≤ 0.5 µM,ETPFTWEESNAYYWQPYALPL
6,≤ 0.5 µM,YIPFTWEESNAYYWQPYALPL

# The next lines start with the compound.
row,Compound,IC50
1,C[C@@H](O)[C@H](NC(=O)[C@H](Cc1c[nH]c2ccccc12)NC(=O)[C@H](CCC(=O)O)NC(=O)[C@@H](N)Cc1ccccc1)C(=O)N1CCC[C@H]1C(=O)NCC(=O)N[C@@H](Cc1ccc(O)cc1)C(=O)N[C@@H](Cc1c[nH]c2ccccc12)C(=O)N[C@@H](CCC(N)=O)C(=O)N1CC[C@H]1C(=O)N[C@@H](Cc1ccc(O)cc1)C(N)=O [FEWTPGYWQJY--NH2] (H-FEWTPGYWQ[Aze]Y-NH2),≤ 100 µM
2,CC(C)C[C@H](NC(=O)[C@@H]1CCCN1C(=O)[C@H](CC(C)C)NC(=O)[C@H](C)NC(=O)[C@H](Cc1ccc(O)cc1)NC(=O)[C@@H]1CCN1C(=O)[C@H](CCC(N)=O)NC(=O)[C@H](Cc1ccc(OP(=O)(O)O)cc1)NC(=O)[C@H](Cc1cccc2ccccc12)NC(=O)[C@@H](N)Cc1ccc(OP(=O)(O)O)cc1)C(=O)O [pY(1Nap)pYQJYALPL] (H-[pY][1Nal][pY]Q[Aze]YALPL-OH),≤ 0.5 µM
3,FEWTPGYWQPYALPLSD-NH2 [FEWTPGYWQPYALPLSD--NH2],≤ 0.5 µM

# Biological target: T2, IL-1 induced E-selectin in HUVEC cells (Homo sapiens, UniProt P14778)
# T2 sequence (P14778 18-569): T1 sequence (P14778 18-569)
# Assay: Peptide Effects on IL-1 Induced E-Selectin (HUVEC Cells)
# Format: cell-based
# Details: 120 pM IL-1α, read-out: IC50 (concentration required to inhibit 50% of IL-1 induced E-selectin expression)
# Procedure: The compounds of the present invention were assayed for their ability to inhibit the expression of IL-1 induced E-selectin in HUVEC cells (human umbilical vein endothelial cells). HUVEC cells are grown to confluency in the wells of a 24-well microtiter plate. The compounds were serially diluted in DMEM/F12+0.1% BSA ("SFM"with 120 pM IL-1α. The cells were washed and then incubated with IL-1α and the compound to be tested for 15 minutes. The cells were again washed and incubated in SFM for 4 hours. The cells were washed and incubated with anti-selectin antibody for 30 minutes. Following antibody incubation, the cells were incubated with ^125 I Protein A and washed. The amount of ^125 I bound to the cells was then determined. The concentration of compounds required to inhibit 50% of IL-1 induced E-selectin expression is shown below.
row,IC50,Compound
1,≤ 0.5 µM,CC(=O)N[C@@H](Cc1ccccc1)C(=O)N[C@@H](CCC(=O)O)C(=O)N[C@@H](Cc1c[nH]c2ccccc12)C(=O)N[C@H](C(=O)N1CCC[C@H]1C(=O)NCC(=O)N[C@@H](Cc1ccc(O)cc1)C(=O)N[C@@H](Cc1ccc(O)cc1)C(=O)N[C@@H](CCC(N)=O)C(=O)N1CC[C@H]1C(=O)N[C@@H](Cc1ccc(O)cc1)C(N)=O)[C@@H](C)O [AcFEWTPGYYQJY--NH2] (Ac-FEWTPGYYQ[Aze]Y-NH2)
2,≤ 0.5 µM,CC(C)C[C@H](NC(=O)[C@@H]1CCCN1C(=O)[C@H](CC(C)C)NC(=O)[C@H](C)NC(=O)[C@H](Cc1ccc(O)cc1)NC(=O)[C@@H]1CCN1C(=O)[C@H](CCC(N)=O)NC(=O)[C@H](Cc1ccc(O)cc1)NC(=O)[C@H](Cc1c[nH]c2ccccc12)NC(=O)CNC(=O)[C@@H]1CCCN1C(=O)[C@@H](NC(=O)[C@H](Cc1c[nH]c2ccccc12)NC(=O)[C@H](CCC(=O)O)NC(=O)[C@@H](N)Cc1ccccc1)[C@@H](C)O)C(=O)O [FEWTPGWYQJYALPL] (H-FEWTPGWYQ[Aze]YALPL-OH)

# Biological target: T3, IL-1RtI (Homo sapiens, UniProt P14778)
# T3 construct: made in house; host or cells: recombinant host cells (one form soluble from baculovirus transformed host cells; another PIG-tailed and cleaved from the cell surface)
# T3 sequence (P14778 18-336): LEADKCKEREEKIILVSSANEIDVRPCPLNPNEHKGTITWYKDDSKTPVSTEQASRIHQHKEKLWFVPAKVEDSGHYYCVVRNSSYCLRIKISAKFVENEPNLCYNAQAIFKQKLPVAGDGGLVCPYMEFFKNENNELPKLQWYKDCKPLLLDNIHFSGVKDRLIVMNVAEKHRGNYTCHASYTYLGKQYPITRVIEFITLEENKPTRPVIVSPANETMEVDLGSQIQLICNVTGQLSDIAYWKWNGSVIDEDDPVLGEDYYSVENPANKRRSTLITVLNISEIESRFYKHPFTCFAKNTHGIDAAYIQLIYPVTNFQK
# Assay: Inhibition of 125I-IL-1α binding to IL-1RtI (Example 3)
# Details: not given
# How it was run: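 Competition with 90 pM 125I-IL-1α was run in duplicate for 2 h at 4 °C in HEPES-buffered RPMI with 1% BSA, pH 7.2-7.3, against either antibody-captured truncated receptor or cells with full-length IL-1RtI. Gamma counting of NaOH-detached material gave approximate IC50; high-affinity peptides used 24-well format.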
row,IC50,Compound
1,< 0.5 µM,HIDNTAWYENFLLTYTP [HIDNTAWYENFLLTYTP]
2,< 0.5 µM,QIDNTAWYERFLLQYNA [QIDNTAWYERFLLQYNA]
3,< 0.5 µM,TYTYDNTAWYERFLMSY [TYTYDNTAWYERFLMSY]

row,Compound,IC50
1,CC(C)C[C@H](NC(=O)[C@@H]1CCCN1C(=O)[C@H](CC(C)C)NC(=O)[C@H](C)NC(=O)[C@H](Cc1ccc(O)cc1)NC(=O)[C@@H]1CCN1C(=O)[C@H](CCC(N)=O)NC(=O)[C@H](Cc1ccc(OP(=O)(O)O)cc1)NC(=O)[C@H](Cc1cccc2ccccc12)NC(=O)[C@@H](N)Cc1ccc(OP(=O)(O)O)cc1)C(=O)O [pY(1Nap)pYQJYALPL] (H-[pY][1Nal][pY]Q[Aze]YALPL-OH),< 0.5 µM

# Same assay, conditions: inhibition of 125I-IL-1α binding to IL-1RtI; soluble peptide unless marked *
row,IC50,Compound
1,≤ 100 µM,CC(C)C[C@H](NC(=O)[C@@H]1CCCN1C(=O)[C@H](CC(C)C)NC(=O)[C@H](C)NC(=O)[C@H](Cc1ccc(O)cc1)NC(=O)[C@@H]1CCN1C(=O)[C@H](CCC(N)=O)NC(=O)[C@H](Cc1c[nH]c2ccccc12)NC(=O)[C@H](Cc1ccc(O)cc1)NC(=O)[C@@H](NC(=O)[C@H](Cc1ccccc1)NC(=O)[C@@H](N)[C@@H](C)O)C(C)C)C(=O)O [TFVYWQJYALPL] (H-TFVYWQ[Aze]YALPL-OH)
2,≤ 0.5 µM,DGYDRWRQSGERYWQPYALPL
3,≤ 0.5 µM,ETPFTWEESNAYYWQPYALPL
4,≤ 100 µM,IWYQPYAMPL [IWYQPYAMPL]
5,≤ 100 µM,LFEQPYAKALGL [LFEQPYAKALGL]
6,≤ 100 µM,NSYFWQPYALPL [NSYFWQ PYALPL]
7,≤ 100 µM,"RGDYWQPYSVQS [3H9, 11, RGDYWQPYSVQS]"
8,≤ 100 µM,RPLYWQPYSVQV [RPLYWQPYSVQV]
9,≤ 100 µM,RSQYYQPYALPL [RSQYYQ PYALPL]

# Further lines, the compound ahead of its results:
row,Compound,IC50
1,C[C@@H](O)[C@H](NC(=O)[C@H](Cc1c[nH]c2ccccc12)NC(=O)[C@H](CCC(=O)O)NC(=O)[C@@H](N)Cc1ccccc1)C(=O)N1CCC[C@H]1C(=O)NCC(=O)N[C@@H](Cc1ccc(O)cc1)C(=O)N[C@@H](Cc1c[nH]c2ccccc12)C(=O)N[C@@H](CCC(N)=O)C(=O)N1CC[C@H]1C(=O)N[C@@H](Cc1ccc(O)cc1)C(N)=O [FEWTPGYWQJY--NH2] (H-FEWTPGYWQ[Aze]Y-NH2),≤ 0.5 µM
2,HWGHVYWQPYSVQDDLG [HWGH VYWQPYSVQ DDLG],≤ 100 µM
3,MWYQPYSSQPAE [MWYQPYSSQPAE],≤ 100 µM
4,"NMVYWQPYSIQT [Peptide 3H7, NMVYWQPYSIQT]",≤ 100 µM
5,PWIQPYARGFG [PWIQPYARGFG],≤ 100 µM
6,QRIWWQPYALPL [QRIWWQ PYALPL],≤ 100 µM
7,RFDYWQPYSDQT [RFDYWQPYSDQT],≤ 100 µM
8,RFMYWQPYSVQR [RFMYWQPYSVQR],≤ 100 µM
9,"RLVYWQPYSVQT [Peptide 3H2, RLVYWQPYSVQT]",≤ 100 µM
10,RSLYWQPYALPL [RSLYWQ PYALPL],≤ 100 µM
11,RWEQPYVKDGWS [RWEQPYVKDGWS],≤ 100 µM
